Laboratory results from ChEMBL document CHEMBL1201862, “PubChem BioAssay data set” (2004).
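96-well plates; 48 h exposure; 5 concentrations. Endpoints by linear interpolation between flanking doses. Not reached: highest tested concentration assigned. GI50 marks 50% less growth.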 Active and inactive are the calls of the source. Rule as the data show it: active = GI50 up to about 1.1 µM and inactive = higher.

Key:
Assay in all cases: DTP human tumour cell line panel, 48 h
[1] = tested on: 786-0
[2] = tested on: A498
[3] = tested on: A549
[4] = tested on: ACHN
[5] = tested on: CAKI-1
[6] = tested on: CCRF-CEM
[7] = tested on: COLO 205
[8] = tested on: DU-145
[9] = tested on: EKVX
[10] = tested on: HCC 2998
[11] = tested on: HCT-116
[12] = tested on: HCT-15
[13] = tested on: HL-60
[14] = tested on: HOP-62
[15] = tested on: HOP-92
[16] = tested on: HT-29
[17] = tested on: Hs-578T
[18] = tested on: IGROV-1
[19] = tested on: K562
[20] = tested on: KM12
[21] = tested on: LOX IMVI
[22] = tested on: M14
[23] = tested on: MCF7
[24] = tested on: MDA-MB-231
[25] = tested on: MDA-N
[26] = tested on: MOLT-4
[27] = tested on: Malme-3M
[28] = tested on: NCI-H226
[29] = tested on: NCI-H23
[30] = tested on: NCI-H460
[31] = tested on: NCI-H522
[32] = tested on: NCI/ADR-RES
[33] = tested on: OVCAR-3
[34] = tested on: OVCAR-4
[35] = tested on: OVCAR-5
[36] = tested on: OVCAR-8
[37] = tested on: PC-3
[38] = tested on: RPMI-8226
[39] = tested on: RXF 393
[40] = tested on: SF-268
[41] = tested on: SF-295
[42] = tested on: SF-539
[43] = tested on: SK-MEL-28
[44] = tested on: SK-MEL-2
[45] = tested on: SK-MEL-5
[46] = tested on: SK-OV-3
[47] = tested on: SN12C
[48] = tested on: SNB-19
[49] = tested on: SNB-75
[50] = tested on: SR
[51] = tested on: SW-620
[52] = tested on: T47D
[53] = tested on: TK-10
[54] = tested on: U-251
[55] = tested on: UACC-257
[56] = tested on: UO-31
[57] = tested on: MDA-MB-435
[58] = tested on: UACC-62

SMILES: CC(C)(C)C(=O)C(Cc1ccccc1)C(=O)C(C)(C)C
- GI50 [1]: > 100 µM (inactive)
- GI50 [2]: > 100 µM (inactive)
- GI50 [3]: > 100 µM (inactive)
- GI50 [4]: > 100 µM (inactive)
- GI50 [5]: > 100 µM (inactive)
- GI50 [6]: 39.6 µM (inactive)
- GI50 [7]: > 100 µM (inactive)
- GI50 [8]: > 100 µM (inactive)
- GI50 [9]: > 100 µM (inactive)
- GI50 [10]: > 100 µM (inactive)
- GI50 [11]: 52.6 µM (inactive)
- GI50 [12]: > 100 µM
- GI50 [13]: 30.5 µM (inactive)
- GI50 [14]: > 100 µM (inactive)
- GI50 [15]: 29.6 µM (inactive)
- GI50 [16]: 39.4 µM (inactive)
- GI50 [17]: > 100 µM (inactive)
- GI50 [18]: > 100 µM (inactive)
- GI50 [19]: 55 µM (inactive)
- GI50 [20]: > 100 µM (inactive)
- GI50 [21]: > 100 µM (inactive)
- GI50 [22]: > 100 µM (inactive)
- GI50 [23]: > 100 µM (inactive)
- GI50 [24]: > 100 µM (inactive)
- GI50 [25]: > 100 µM (inactive)
- GI50 [26]: 50.7 µM (inactive)
- GI50 [27]: > 100 µM (inactive)
- GI50 [28]: > 100 µM (inactive)
- GI50 [29]: > 100 µM (inactive)
- GI50 [30]: > 100 µM (inactive)
- GI50 [31]: 98.4 µM (inactive)
- GI50 [32]: 51.6 µM (inactive)
- GI50 [33]: 55 µM (inactive)
- GI50 [34]: 66.1 µM (inactive)
- GI50 [35]: > 100 µM (inactive)
- GI50 [36]: > 100 µM (inactive)
- GI50 [37]: 46.7 µM (inactive)
- GI50 [38]: 37.4 µM (inactive)
- GI50 [39]: 98.6 µM (inactive)
- GI50 [40]: > 100 µM (inactive)
- GI50 [41]: > 100 µM (inactive)
- GI50 [42]: > 100 µM (inactive)
- GI50 [43]: > 100 µM (inactive)
- GI50 [44]: > 100 µM (inactive)
- GI50 [45]: > 100 µM (inactive)
- GI50 [46]: 23.2 µM (inactive)
- GI50 [47]: > 100 µM (inactive)
- GI50 [48]: > 100 µM (inactive)
- GI50 [49]: > 100 µM (inactive)
- GI50 [50]: 51.3 µM (inactive)
- GI50 [51]: > 100 µM (inactive)
- GI50 [52]: 25.5 µM (inactive)
- GI50 [53]: > 100 µM (inactive)
- GI50 [54]: > 100 µM (inactive)
- GI50 [55]: > 100 µM (inactive)
- GI50 [56]: 81.7 µM (inactive)

SMILES: C=CC(C)(C)C1(CC(OC)OC)C(=O)N(C)c2ccccc21 (stereo not drawn)
- GI50 [1]: > 25 µM (inactive)
- GI50 [2]: > 25 µM (inactive)
- GI50 [3]: > 25 µM (inactive)
- GI50 [4]: > 25 µM (inactive)
- GI50 [5]: > 25 µM (inactive)
- GI50 [6]: > 25 µM (inactive)
- GI50 [7]: > 25 µM (inactive)
- GI50 [8]: > 25 µM (inactive)
- GI50 [9]: > 25 µM (inactive)
- GI50 [10]: > 25 µM (inactive)
- GI50 [11]: > 25 µM (inactive)
- GI50 [12]: > 25 µM
- GI50 [13]: > 25 µM (inactive)
- GI50 [14]: > 25 µM (inactive)
- GI50 [15]: > 25 µM (inactive)
- GI50 [16]: > 25 µM (inactive)
- GI50 [17]: > 25 µM (inactive)
- GI50 [19]: > 25 µM (inactive)
- GI50 [20]: > 25 µM (inactive)
- GI50 [21]: > 25 µM (inactive)
- GI50 [22]: > 25 µM (inactive)
- GI50 [23]: > 25 µM (inactive)
- GI50 [24]: > 25 µM (inactive)
- GI50 [57]: > 25 µM (inactive)
- GI50 [25]: > 25 µM (inactive)
- GI50 [28]: > 25 µM (inactive)
- GI50 [29]: > 25 µM (inactive)
- GI50 [30]: > 25 µM (inactive)
- GI50 [32]: > 25 µM (inactive)
- GI50 [33]: > 25 µM (inactive)
- GI50 [34]: > 25 µM (inactive)
- GI50 [35]: > 25 µM (inactive)
- GI50 [36]: > 25 µM (inactive)
- GI50 [37]: > 25 µM (inactive)
- GI50 [38]: > 25 µM (inactive)
- GI50 [39]: > 25 µM (inactive)
- GI50 [40]: > 25 µM (inactive)
- GI50 [41]: > 25 µM (inactive)
- GI50 [43]: > 25 µM (inactive)
- GI50 [44]: > 25 µM (inactive)
- GI50 [45]: > 25 µM (inactive)
- GI50 [46]: > 25 µM (inactive)
- GI50 [47]: > 25 µM (inactive)
- GI50 [48]: > 25 µM (inactive)
- GI50 [49]: > 25 µM (inactive)
- GI50 [50]: > 25 µM (inactive)
- GI50 [51]: > 25 µM (inactive)
- GI50 [52]: > 25 µM (inactive)
- GI50 [54]: > 25 µM (inactive)
- GI50 [55]: > 25 µM (inactive)
- GI50 [58]: > 25 µM (inactive)
- GI50 [56]: > 25 µM (inactive)
